A short description of one series: in vitro. The note with it: dog, mdck.
The conditions of series [1]: 1 mM. As to the method: Synthesis, purification, and characterization of selected compounds are summarized below. Stock solutions were prepared fresh daily. All solutions of the test compounds were prepared in dimethyl-sulfoxide (DMSO).
For series [2], the system named is C22 virus in MDCK2 cells. The series is described as follows: microbe, parasite or virus in culture. The following applies: unidentified influenza virus, MDCK2, 15 h, read-out: infectivity % inhibition.
Series [3] relates to hemagglutinin-mediated hemolysis of human red blood cells. Description: Hemolysis (HEM) assay. The series is classed as cell-based, C22 influenza virus; human red blood cells. The following applies: for inhibition at 1000 µM: unidentified influenza virus, Erythrocyte, log conc -3 (M), read-out: hemolysis % ↓ OD.
Series [4] has as its target hemagglutinin (BHA), fusion peptide exposure (Influenza A virus (A/X-31(H3N2)), UniProt P03438). The series is classed as biochemical, C22 / X31 influenza virus (H3N2).
Another series relates to hemoglobin. Description: Hb control (quenching of OD570 of hemoglobin). The arrangement: species or system human. The note with it: log conc -3 (M).
Another series addresses HIV-1 fusion protein (Human immunodeficiency virus type 1 group M subtype B, UniProt P04578). Description: Inhibition of fusion mediated by the HIV-1 fusion protein. The series is classed as cell-based.
Series [5] relates to C22 virus in MDCK2 cells.

As a reminder, the IC50 is the concentration needed to halve the response being measured. Read a low IC50 as greater potency in that assay.

hemagglutinin (BHA), fusion peptide exposure (Influenza A virus (A/X-31(H3N2)), UniProt P03438), sequence (P03438 whole entry, looked up, the tested form may be a part): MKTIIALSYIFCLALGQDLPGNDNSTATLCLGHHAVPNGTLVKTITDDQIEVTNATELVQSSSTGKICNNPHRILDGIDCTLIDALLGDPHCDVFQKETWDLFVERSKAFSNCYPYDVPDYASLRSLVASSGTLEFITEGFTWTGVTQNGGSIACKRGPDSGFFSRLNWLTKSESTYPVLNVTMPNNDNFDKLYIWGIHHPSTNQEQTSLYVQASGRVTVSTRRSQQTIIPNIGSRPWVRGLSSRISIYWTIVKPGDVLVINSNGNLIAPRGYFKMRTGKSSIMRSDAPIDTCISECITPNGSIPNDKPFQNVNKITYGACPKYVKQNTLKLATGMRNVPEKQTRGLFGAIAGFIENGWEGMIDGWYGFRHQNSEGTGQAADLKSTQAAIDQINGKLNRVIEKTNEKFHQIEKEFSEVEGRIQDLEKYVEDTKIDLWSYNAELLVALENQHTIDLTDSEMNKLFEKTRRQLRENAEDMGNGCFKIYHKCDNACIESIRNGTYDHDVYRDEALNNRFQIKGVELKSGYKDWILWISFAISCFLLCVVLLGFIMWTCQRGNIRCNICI
Description for in vitro: The ELISA-based assay described below (EIA antiviral assay) was used to measure antiviral activity. Cell viability was measured in parallel to distinguish inhibition of viral replication from toxicity.
Infections of MDCK2 cells with virus, compounds, and DMSO were set up identically as for the EIA assay. Following the 15 hour incubation, test compounds were washed away with PBS. 50 μl of MDCK2 growth media and 25 μl 2 mg/ml 3-(4,5-dimethylthiazol-2-yl)-2,5-diphenyl tetrazolium bromide (Sigma) in PBS were added to each well. Plates were returned to 37° C., 5% CO2 for 4 hrs. Crystals were broken up by vigorous mixing following addition of 80 μl isopropanol/0.04 N HCl. After incubation for 30 mins at RT, OD570 was read on an ELISA reader. % Inhibition is the % reduction of OD570 in the wells infected with compound compared to otherwise identical samples with compound omitted.

In “in vitro”, `Oc1ccc(O)c2ccccc12` [Compound 110, 1,4-dihydroxynaphthalene] had a cytotoxicity at 15 h, 1 µM of 5 ± 12.5%; a cytotoxicity at 15 h, 10 µM of 19.2 ± 15.6%; a cytotoxicity at 15 h, 100 µM of 98.3 ± 1.2%; a cytotoxicity at 15 h, 1000 µM of 96.9 ± 0.4%. The “solubility at 1 mM” value in series [1] is on record as “only partially soluble at 1 mM”. Moreover, in the series on C22 virus in MDCK2 cells [2], the inhibition at 1 µM was -9.8 ± 0.6%, the inhibition at 10 µM was found to be 61.1 ± 50.8%, the inhibition at 100 µM was found to be 91.9 ± 11.5% and the inhibition at 1000 µM was found to be 102%.

Regarding `Oc1ccc(Cl)c2ccccc12` [Compound 101, 4-chloro-1-naphthol], in series [3], the inhibition at 1000 µM is 112%. The compound further had a cytotoxicity at 15 h, 100 µM in “in vitro” of 97.4%. For the same compound, the “solubility at 1 mM” value in series [1] is “only partially soluble at 1 mM”. The “inhibition in the SPA assay” value in series [4] (1 μM-1 mM) is on record as “showed no inhibition”. Also, the “activity note in Table 7” value in series [4] (Table 7) is “inactive”. The “Hb control % ↓ OD” value in the series with hemoglobin turned out to be 93.0%.

As for `COc1ccc(O)c2ccccc12` [Compound 107, 4-methoxy-1-naphthol], the “hemolysis column of Table 6, words” value in series [3] (Table 6) is “quench”. For the same compound, the “HEM, words (Table 7)” value in series [3] (Table 7) was “quench”. Further, the inhibition at 1000 µM in series [3] is 104%. Moreover, in “in vitro”, the cytotoxicity at 15 h, 100 µM was found to be 96.9%. Further, in series [1], the “solubility at 1 mM” value is listed as “only partially soluble at 1 mM”. At HIV-1 fusion protein, the IC50 was 50 µM. Besides, in the series on C22 virus in MDCK2 cells [5], the “infectivity in Table 6” value was “toxic” and the “INF, words (Table 7)” value is on record as “toxic”. Also, in the series with hemoglobin, the “Hb control % ↓ OD” value amounted to 92.5%.

In turn, `Oc1ccc(O)c(-c2ccccc2)c1` [Compound 105, phenylhydroquinone] gave a cytotoxicity at 15 h, 100 µM in the series “in vitro” of 100%. Besides, in series [1], the “solubility at 1 mM” value is “only partially soluble at 1 mM”. Moreover, in the series with C22 virus in MDCK2 cells [5], the “infectivity in Table 6” value was “toxic” and the “INF, words (Table 7)” value is listed as “toxic”.

(Values after patent US6080791A, “Method of treating a viral condition by inhibiting membrane fusion” (priority 1992, dated 2000).)
